Experimental data from the supplement of paper PMC10307832.

What follows are cell lines tested with c1ccc2c(CCNc3ccc(Nc4ccncc4)cc3)c[nH]c2c1 [Serdemetan] + CS(=O)(=O)N1CCN(Cc2cc3nc(-c4cccc5[nH]ncc45)nc(N4CCOCC4)c3s2)CC1 [Pictilisib] (partner 1 µM) (assay: relative viability (nuclei count vs DMSO), 5 days (fraction); higher = more cells survive). Conditions: first compound 0.1265 µM.
In short: (§1)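 Relative viability is defined as nuclei in treated wells over nuclei in vehicle wells. Duplicate plates were run and medians reported. Lung cancer cell lines in 1536-well plates were dosed by pin tool one day after seeding, with one drug or with a fixed anchor-drug dose plus five library-drug doses (not always all listed) in √10 steps, and nuclei were counted after 5 days.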

Row | Cell Line | relative viability
1 | HCC-366 | 0.151
2 | NCI-H1666 | 0.413
3 | NCI-H596 | 0.411
4 | LK-2 | 0.578
5 | NCI-H2087 | 0.966
6 | SK-MES-1 | 0.378
7 | H3255 | 0.403
8 | COR-L23 | 0.767
9 | COR-L 105 | 0.486
10 | IA-LM | 0.499
11 | LOU-NH91 | 0.484
12 | ChaGo-K-1 | 0.832
13 | NCI-H2170 | 0.34
14 | NCI-H2405 | 0.403
15 | A549 | 0.558
16 | NCI-H2009 | 0.822
17 | NCI-H661 | 0.356
18 | SK-LU-1 | 0.47
19 | NCI-H1299 | 0.864
20 | CAL-12T | 0.521
21 | NCI-H2228 | 0.26
22 | NCI-H2023 | 0.28
23 | NCI-H1563 | 0.665

Same assay, conditions: first compound 0.4 µM

Row | Cell Line | relative viability
24 | NCI-H727 | 0.412
25 | NCI-H1650 | 0.475
26 | EBC-1 | 0.451
27 | NCI-H1703 | 0.3
28 | NCI-H1993 | 0.809
29 | SW 1573 | 0.494
30 | NCI-H838 | 0.507
31 | LCLC-103H | 0.619
32 | NCI-H520 | 0.321
33 | NCI-H2126 | 0.428
34 | EMC-BAC-2 | 0.507
35 | NCI-H2085 | 0.483
36 | Calu-6 | 0.888
37 | HCC-366 | 0.0985
38 | NCI-H1666 | 0.525
39 | NCI-H596 | 0.346
40 | LK-2 | 0.687

Row | Cell Line | relative viability
41 | NCI-H2087 | 0.814
42 | SK-MES-1 | 0.377
43 | H3255 | 0.423
44 | COR-L23 | 0.785
45 | COR-L 105 | 0.322
46 | IA-LM | 0.325
47 | ChaGo-K-1 | 0.649
48 | NCI-H2170 | 0.311
49 | NCI-H2405 | 0.491
50 | A549 | 0.517
51 | NCI-H2009 | 0.887
52 | NCI-H661 | 0.383
53 | SK-LU-1 | 0.713
54 | NCI-H1299 | 0.679
55 | NCI-H2228 | 0.327
56 | NCI-H2023 | 0.19
57 | NCI-H1563 | 0.664

Same assay, conditions: first compound 1.265 µM

Row | Cell Line | relative viability
58 | NCI-H727 | 0.346
59 | NCI-H1650 | 0.41
60 | EBC-1 | 0.411
61 | NCI-H1703 | 0.271
62 | SW 1573 | 0.182
63 | NCI-H838 | 0.438
64 | LCLC-103H | 0.594
65 | NCI-H520 | 0.269
66 | NCI-H2126 | 0.521
67 | EMC-BAC-2 | 0.508
68 | NCI-H2085 | 0.357
69 | Calu-6 | 0.647
70 | HCC-366 | 0.141
71 | NCI-H1666 | 0.531
72 | NCI-H596 | 0.332
73 | LK-2 | 0.362
74 | NCI-H2087 | 0.493
75 | SK-MES-1 | 0.363

Row | Cell Line | relative viability
76 | H3255 | 0.497
77 | COR-L23 | 0.598
78 | COR-L 105 | 0.427
79 | IA-LM | 0.314
80 | LOU-NH91 | 0.433
81 | ChaGo-K-1 | 0.421
82 | NCI-H2170 | 0.28
83 | NCI-H2405 | 0.42
84 | A549 | 0.264
85 | NCI-H2009 | 0.424
86 | NCI-H661 | 0.342
87 | SK-LU-1 | 0.494
88 | NCI-H1299 | 0.61
89 | CAL-12T | 0.369
90 | NCI-H2228 | 0.257
91 | NCI-H2023 | 0.182
92 | NCI-H1563 | 0.549

Same assay, conditions: first compound 4 µM

Row | Cell Line | relative viability
93 | NCI-H727 | 0.299
94 | NCI-H1650 | 0.441
95 | EBC-1 | 0.368
96 | NCI-H1703 | 0.232
97 | NCI-H1993 | 0.761
98 | SW 1573 | 0.177
99 | NCI-H838 | 0.549
100 | LCLC-103H | 0.611
101 | NCI-H520 | 0.272
102 | NCI-H2126 | 0.542
103 | EMC-BAC-2 | 0.502
104 | NCI-H2085 | 0.438
105 | Calu-6 | 0.621
106 | HCC-366 | 0.168
107 | NCI-H1666 | 0.465
108 | NCI-H596 | 0.339
109 | LK-2 | 0.301
110 | NCI-H2087 | 0.422

Row | Cell Line | relative viability
111 | SK-MES-1 | 0.205
112 | H3255 | 0.435
113 | COR-L23 | 0.752
114 | COR-L 105 | 0.37
115 | IA-LM | 0.389
116 | LOU-NH91 | 0.496
117 | ChaGo-K-1 | 0.659
118 | NCI-H2170 | 0.349
119 | NCI-H2405 | 0.41
120 | A549 | 0.262
121 | NCI-H2009 | 0.662
122 | NCI-H661 | 0.361
123 | SK-LU-1 | 0.407
124 | NCI-H1299 | 0.384
125 | CAL-12T | 0.368
126 | NCI-H2228 | 0.214
127 | NCI-H2023 | 0.189
128 | NCI-H1563 | 0.628

The cell lines below were run with C1CC(C2=C(C1)C3=C(N2)C=CC(=C3)Cl)C(=O)N [Selisistat] + O=C(c1cc(Cc2n[nH]c(=O)c3ccccc23)ccc1F)N1CCN(C(=O)C2CC2)CC1 [Olaparib] (partner 8 µM) in the same assay as above. Conditions: first compound 0.4 µM.
In short: as §1

Row | Cell Line | relative viability
129 | NCI-H522 | 0.574
130 | NCI-H727 | 0.737
131 | NCI-H1650 | 0.933
132 | EBC-1 | 0.763
133 | NCI-H1703 | 0.416
134 | NCI-H1993 | 1.06
135 | SW 1573 | 0.4
136 | NCI-H838 | 0.833
137 | LCLC-103H | 0.814
138 | NCI-H520 | 0.413
139 | NCI-H2126 | 0.981
140 | EMC-BAC-2 | 0.577
141 | NCI-H2085 | 0.818
142 | Calu-6 | 0.561
143 | HCC-366 | 0.306
144 | NCI-H1666 | 0.798
145 | NCI-H596 | 0.802
146 | LK-2 | 0.721
147 | NCI-H2087 | 0.748
148 | NCI-H2342 | 0.4
149 | SK-MES-1 | 0.769
150 | H3255 | 0.505
151 | COR-L23 | 0.409
152 | COR-L 105 | 0.703
153 | IA-LM | 0.899
154 | LOU-NH91 | 0.936
155 | ChaGo-K-1 | 0.439
156 | NCI-H2170 | 0.596
157 | NCI-H2405 | 0.899
158 | A549 | 0.439
